# Measurements from ChEMBL document CHEMBL1759917, “Synthesis of purin-2-yl and purin-6-yl-aminoglucitols as C-nucleosidic ATP mimics and biological evaluation as FGFR3 inhibitors” (Eur J Med Chem, 2011).
# The source made the active and inactive calls. No cut-off for these calls is given here.
# Target: Fibroblast growth factor receptor 3 (Homo sapiens) (UniProt P22607)
# Experiment: Inhibition of FGFR3 at 50 uM
# Chain of Fibroblast growth factor receptor 3 (Homo sapiens) (P22607 23-806 limits assumed): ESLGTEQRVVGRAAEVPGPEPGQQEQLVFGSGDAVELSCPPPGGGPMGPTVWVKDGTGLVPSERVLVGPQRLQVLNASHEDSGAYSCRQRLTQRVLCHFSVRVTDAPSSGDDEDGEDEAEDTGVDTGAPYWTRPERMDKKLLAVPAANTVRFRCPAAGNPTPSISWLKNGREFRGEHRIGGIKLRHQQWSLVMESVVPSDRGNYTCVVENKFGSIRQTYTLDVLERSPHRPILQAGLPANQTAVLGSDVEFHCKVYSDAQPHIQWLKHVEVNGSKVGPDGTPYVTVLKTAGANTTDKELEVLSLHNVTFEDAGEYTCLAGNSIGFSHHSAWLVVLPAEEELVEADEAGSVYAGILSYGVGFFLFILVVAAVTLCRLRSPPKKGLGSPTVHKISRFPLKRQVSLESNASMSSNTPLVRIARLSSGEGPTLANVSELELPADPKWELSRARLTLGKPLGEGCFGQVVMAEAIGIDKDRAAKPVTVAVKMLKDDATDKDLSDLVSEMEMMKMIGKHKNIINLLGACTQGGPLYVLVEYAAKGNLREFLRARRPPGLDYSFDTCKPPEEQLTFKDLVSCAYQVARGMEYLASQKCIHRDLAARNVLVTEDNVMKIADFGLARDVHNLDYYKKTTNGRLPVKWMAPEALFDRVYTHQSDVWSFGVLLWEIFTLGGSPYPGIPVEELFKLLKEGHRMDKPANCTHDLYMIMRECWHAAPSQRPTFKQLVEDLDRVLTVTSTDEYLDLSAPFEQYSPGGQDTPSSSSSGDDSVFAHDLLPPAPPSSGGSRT
row,inhibition call (active / not active),SMILES
1,inactive,Nc1nc(N)c2ncn(C[C@@H]3O[C@H](CO)[C@@H](O)[C@H]3O)c2n1
2,Active,COc1ccc(CCNc2nc(NC[C@@H]3O[C@H](CO)[C@@H](O)[C@@H]3O)c3nc[nH]c3n2)cc1OC
3,Active,OC[C@H]1O[C@@H](CNc2nc(NCCc3ccccc3)nc3[nH]cnc23)[C@@H](O)[C@@H]1O
4,inactive,Nc1ncc2ncn(C[C@@H]3O[C@H](CO)[C@@H](O)[C@H]3O)c2n1
5,Active,OC[C@H]1O[C@@H](CNc2nc(NCCc3ccccc3)c3nc[nH]c3n2)[C@@H](OCc2ccccc2)[C@@H]1OCc1ccccc1
6,inactive,CCN(CC)CCCNc1nc(Nc2ccccc2)c2ncn(C[C@@H]3O[C@H](CO)[C@@H](O)[C@H]3O)c2n1
7,Active,OC[C@H]1O[C@@H](CNc2nc(NCCN3CCOCC3)c3nc[nH]c3n2)[C@@H](O)[C@@H]1O
8,Active,OC[C@H]1O[C@@H](CNc2nc(NCCc3ccccc3)nc3[nH]cnc23)[C@@H](OCc2ccccc2)[C@@H]1OCc1ccccc1
9,Active,OC[C@H]1O[C@@H](CNc2nc(NCCc3ccccc3)c3nc[nH]c3n2)[C@@H](O)[C@@H]1O
10,inactive,Nc1nc(Nc2ccccc2)c2ncn(C[C@@H]3O[C@H](CO)[C@@H](O)[C@H]3O)c2n1
11,Active,OC[C@H]1O[C@@H](CNc2nc(NCCN3CCOCC3)nc3[nH]cnc23)[C@@H](O)[C@@H]1O
12,inactive,CCN(CC)CCCNc1nc(N)c2ncn(C[C@@H]3O[C@H](CO)[C@@H](O)[C@H]3O)c2n1
13,Active,OC[C@H]1O[C@@H](CNc2nc(I)nc3[nH]cnc23)[C@@H](OCc2ccccc2)[C@@H]1OCc1ccccc1
14,Active,COc1ccc(CCNc2nc(NC[C@@H]3O[C@H](CO)[C@@H](O)[C@@H]3O)nc3[nH]cnc23)cc1OC
15,inactive,Nc1ncnc2c1ncn2C[C@@H]1O[C@H](CO)[C@@H](O)[C@H]1O
16,Active,Ic1nc(NCCN2CCOCC2)c2nc[nH]c2n1
